Measurements as given in patent publication US20220409620A1, “REDUCING IMMUNOGENICITY TO PEGLOTICASE” (Horizon Pharma Rheumatology LLC, priority 2016, published 2022).

System: adult patients with uncontrolled gout
Assay: Health Assessment Questionnaire (HAQ-DI, HAQ pain, HAQ health), open-label study
Assay type: in vivo, human
Parameters: key to HAQ-Health, Observed, Median / HAQ-Health, Change from Baseline, Median: 0-100 scale; 0 = very well, 100 = very poor health; key to HAQ-DI, Observed, Median / HAQ-DI, Change from Baseline, Median: HAQ-DI scale 0-3; 0 = no difficulty, 3 = unable to do
Conditions: mITT Population
Procedure: Quality-of-Life Assessment: The HAQ was administered at the Screening and Week −4 or week −6 (prior to the first dose of MTX) Visits during the MTX Run-in Period for the open-label and randomized studies, respectively; prior to pegloticase infusion at the Day 1 and Weeks 14, 24 and 36 Visits or at the Day 1 and weeks 6, 14, 20, 24, 30, 36, and 44 visits during the Pegloticase+IMM Period for the open-label and randomized studies, respectively; at the End of Pegloticase Infusions Visit (if applicable), the Week 52/End of Study/Early Termination Visit and the Post Treatment Periods 3 and 6 Month Follow-up Visits (open-label study). The HAQ-DI is a self-report functional status instrument that can be filled out by a subject in less than 5 minutes and requires 1 minute to score. The index measures disability over the past week by asking a total of 20 questions covering 8 domains of function: dressing and grooming, arising, eating, walking, hygiene, reach, grip, and usual activities. There are at least 2 questions in each domain and the 8 domains represent a comprehensive set of functional activities. The HAQ-DI is calculated by scoring the answer to each question in the HAQ from 0 to 3, with 0 representing the ability to do without any difficulty, and 3 representing inability to do. Any activity that requires assistance from another individual or requires the use of an assistive device raises a 0 or 1 score to a 2. The highest score for each of the 8 domains is summed (range from 0 to 24) and divided by 8 to yield, on a scale with 25 possible values, a Functional Disability Index with a range from 0 to 3. The disability index is based on the number of domains answered and is computed only if the subject completes answers to at least 6 domains. The HAQ pain scale asks subjects to record how much pain they have had in the past week on a scale of 0 to 100, where zero represents “no pain” and 100 represents “severe pain”. The HAQ health scale is a measure of overall health. Subjects are asked to rate how well they are doing on a score of 0 to 100, where zero represents “very well” and 100 represents “very poor” health.

[1] = Week 52/ET, Methotrexate Baseline
[2] = Week 52/ET, Pegloticase Baseline

pegloticase
HAQ-Health, Observed, Mean (SD) (Week 14, Pegloticase Baseline): 36.6 (33.87)
HAQ-Health, Observed, Median (Week 14, Pegloticase Baseline): 16.5
HAQ-Pain, Change from Baseline, Mean (SD) (Week 14, Pegloticase Baseline): −16.0 (30.65)
HAQ-Pain, Change from Baseline, Median (Week 14, Pegloticase Baseline): −12.5
HAQ-Pain, Observed, Mean (SD) (Week 14, Pegloticase Baseline): 27.1 (26.25)
HAQ-Pain, Observed, Median (Week 14, Pegloticase Baseline): 15.0
HAQ-DI, Change from Baseline, Mean (SD) (Week 24, Methotrexate Baseline): −0.5 (0.74)
HAQ-DI, Change from Baseline, Median (Week 24, Methotrexate Baseline): −0.1
HAQ-DI, Observed, Mean (SD) (Week 24, Methotrexate Baseline): 0.2 (0.33)
HAQ-DI, Observed, Median (Week 24, Methotrexate Baseline): 0.1
HAQ-Health, Change from Baseline, Mean (SD) (Week 24, Methotrexate Baseline): −33.2 (36.01)
HAQ-Health, Change from Baseline, Median (Week 24, Methotrexate Baseline): −40.0
HAQ-Health, Observed, Mean (SD) (Week 24, Methotrexate Baseline): 21.4 (26.65)
HAQ-Health, Observed, Median (Week 24, Methotrexate Baseline): 10.0
HAQ-Pain, Change from Baseline, Mean (SD) (Week 24, Methotrexate Baseline): −19.2 (35.13)
HAQ-Pain, Change from Baseline, Median (Week 24, Methotrexate Baseline): −10.0
HAQ-Pain, Observed, Mean (SD) (Week 24, Methotrexate Baseline): 25.4 (27.50)
HAQ-Pain, Observed, Median (Week 24, Methotrexate Baseline): 20.0
HAQ-DI, Change from Baseline, Mean (SD) (Week 24, Pegloticase Baseline): −0.6 (0.85)
HAQ-DI, Change from Baseline, Median (Week 24, Pegloticase Baseline): −0.1
HAQ-DI, Observed, Mean (SD) (Week 24, Pegloticase Baseline): 0.2 (0.33)
HAQ-DI, Observed, Median (Week 24, Pegloticase Baseline): 0.1
HAQ-Health, Change from Baseline, Mean (SD) (Week 24, Pegloticase Baseline): −19.7 (43.38)
HAQ-Health, Change from Baseline, Median (Week 24, Pegloticase Baseline): −10.0
HAQ-Health, Observed, Mean (SD) (Week 24, Pegloticase Baseline): 21.4 (26.65)
HAQ-Health, Observed, Median (Week 24, Pegloticase Baseline): 10.0
HAQ-Pain, Change from Baseline, Mean (SD) (Week 24, Pegloticase Baseline): −16.7 (38.53)
HAQ-Pain, Change from Baseline, Median (Week 24, Pegloticase Baseline): −10.0
HAQ-Pain, Observed, Mean (SD) (Week 24, Pegloticase Baseline): 25.4 (27.50)
HAQ-Pain, Observed, Median (Week 24, Pegloticase Baseline): 20.0
HAQ-DI, Change from Baseline, Mean (SD) (Week 36, Methotrexate Baseline): −0.5 (0.80)
HAQ-DI, Change from Baseline, Median (Week 36, Methotrexate Baseline): 0.0
HAQ-DI, Observed, Mean (SD) (Week 36, Methotrexate Baseline): 0.3 (0.49)
HAQ-DI, Observed, Median (Week 36, Methotrexate Baseline): 0.1
HAQ-Health, Change from Baseline, Mean (SD) (Week 36, Methotrexate Baseline): −27.7 (42.59)
HAQ-Health, Change from Baseline, Median (Week 36, Methotrexate Baseline): −10.0
HAQ-Health, Observed, Mean (SD) (Week 36, Methotrexate Baseline): 27.3 (35.18)
HAQ-Health, Observed, Median (Week 36, Methotrexate Baseline): 10.0
HAQ-Pain, Change from Baseline, Mean (SD) (Week 36, Methotrexate Baseline): −22.9 (28.41)
HAQ-Pain, Change from Baseline, Median (Week 36, Methotrexate Baseline): −20.0
HAQ-Pain, Observed, Mean (SD) (Week 36, Methotrexate Baseline): 21.0 (27.60)
HAQ-Pain, Observed, Median (Week 36, Methotrexate Baseline): 10.0
HAQ-DI, Change from Baseline, Mean (SD) (Week 36, Pegloticase Baseline): −0.5 (0.86)
HAQ-DI, Change from Baseline, Median (Week 36, Pegloticase Baseline): −0.1
HAQ-DI, Observed, Mean (SD) (Week 36, Pegloticase Baseline): 0.3 (0.49)
HAQ-DI, Observed, Median (Week 36, Pegloticase Baseline): 0.1
HAQ-Health, Change from Baseline, Mean (SD) (Week 36, Pegloticase Baseline): −16.2 (50.72)
HAQ-Health, Change from Baseline, Median (Week 36, Pegloticase Baseline): −10.0
HAQ-Health, Observed, Mean (SD) (Week 36, Pegloticase Baseline): 27.3 (35.18)
HAQ-Health, Observed, Median (Week 36, Pegloticase Baseline): 10.0
HAQ-Pain, Change from Baseline, Mean (SD) (Week 36, Pegloticase Baseline): −19.9 (20.25)
HAQ-Pain, Change from Baseline, Median (Week 36, Pegloticase Baseline): −20.0
HAQ-Pain, Observed, Mean (SD) (Week 36, Pegloticase Baseline): 21.0 (27.60)
HAQ-Pain, Observed, Median (Week 36, Pegloticase Baseline): 10.0
HAQ-DI, Change from Baseline, Mean (SD) [1]: −0.6 (0.87)
HAQ-DI, Change from Baseline, Median [1]: −0.1
HAQ-DI, Observed, Mean (SD) [1]: 0.4 (0.29)
HAQ-DI, Observed, Median [1]: 0.3
HAQ-Health, Change from Baseline, Mean (SD) [1]: −16.7 (59.23)
HAQ-Health, Change from Baseline, Median [1]: 15.0
HAQ-Health, Observed, Mean (SD) [1]: 60.0 (48.22)
HAQ-Health, Observed, Median [1]: 80.0
HAQ-Pain, Change from Baseline, Mean (SD) [1]: −42.7 (18.04)
HAQ-Pain, Change from Baseline, Median [1]: −44.0
HAQ-Pain, Observed, Mean (SD) [1]: 4.0 (5.20)
HAQ-Pain, Observed, Median [1]: 1.0
HAQ-DI, Change from Baseline, Mean (SD) [2]: −0.8 (1.08)
HAQ-DI, Change from Baseline, Median [2]: −0.1
HAQ-DI, Observed, Mean (SD) [2]: 0.4 (0.29)
HAQ-DI, Observed, Median [2]: 0.3
HAQ-Health, Change from Baseline, Mean (SD) [2]: 23.3 (54.85)
HAQ-Health, Change from Baseline, Median [2]: 5.0
HAQ-Health, Observed, Mean (SD) [2]: 60.0 (48.22)
HAQ-Health, Observed, Median [2]: 80.0
HAQ-Pain, Change from Baseline, Mean (SD) [2]: −41.0 (25.24)
HAQ-Pain, Change from Baseline, Median [2]: −29.0
HAQ-Pain, Observed, Mean (SD) [2]: 4.0 (5.20)
HAQ-Pain, Observed, Median [2]: 1.0
